Assay results published in PMC10076467 (EJNMMI Research, 2023).
Read-outs that look alike come from different tables or passages of the source.

How the values were obtained:
guinea pig σ1 receptor = guinea pig σ1 receptor (Cavia porcellus, UniProt Q60492); test: PDSP σ1 receptor binding
Excerpt: (§1) NR2B-Me was submitted to the PDSP for assessment of binding affinity against a wide range of other receptors and binding sites. A full listing of these receptors and binding sites is given in the Supplemental Results. Detailed assay protocols are available at the PDSP website (http://pdsp.cwru.edu).
(§2) Assessment of Binding Affinity against a Wide Range of Other Receptors and Binding Sites. NR2B-Me was submitted to the National Institute of Mental Health Psychoactive Drug Screening program (NIMH-PDSP) to assess binding affinity against a wide range of other receptors and binding sites (5-HT1A, 1B, 1D, 1E, 2A, 2A agonist, 2A antagonist, 2B, 2B agonist, 2B antagonist, 2C, 2C agonist, 2C antagonist, 3, 5A, 6, 7; α2; α2β2, α2β2, α3β2, α3β4, α4β2, α4β4, α7; α1A, 1A agonist, 1B, 1B agonist, 1B antagonist, 2A-2C; AMPA*; β1-3; BZPa1-3, a5, a6, rat brain site; Ca^2+-Channel; CB1-2, D1, 2, 2 agonist, 2 antagonist, 3-5; DAT; DOR; EP1-4; GABAA,B; GPR40,41,43; H1-4; HERG; IMIDAZOLINE 1; KA-R*; KOR, KORagonist, antagonist; M1, 1 agonist, 1 antagonist, 2, 3, 3 agonist, 3 antagonist, 4, 5, 5 agonist, 5 antagonist; MDR 1; mGluR1A,2,4,5,5-cloned,5-rat brain,6,8; MOR; Na^+-Channel; NET; NK1, 1 antagonist, 2, 2 antagonist, 3, 3 antagonist; NMDA; NMDA/MK801; NT-1; OXYTOCINagonist, antagonist; PAR1agonist, antagonist; PCP; PKCA, B, D, E, G; PTHR2, Purinergicagonist, antagonist; SET; σ1,2; V1, 1 agonist, 1 antagonist, 2, 2 agonist, 2 antagonist, 3, 3 agonist, 3 antagonist, VMAT1, 2).

PC12 cell σ2 receptors = target: T1, PC12 cell σ2 receptors (Rattus norvegicus, UniProt Q5U3Y7); test: PDSP σ2 receptor binding
T1 construct: endogenous in cells; host or cells: PC12 cells
T1 sequence (Q5U3Y7 1-176): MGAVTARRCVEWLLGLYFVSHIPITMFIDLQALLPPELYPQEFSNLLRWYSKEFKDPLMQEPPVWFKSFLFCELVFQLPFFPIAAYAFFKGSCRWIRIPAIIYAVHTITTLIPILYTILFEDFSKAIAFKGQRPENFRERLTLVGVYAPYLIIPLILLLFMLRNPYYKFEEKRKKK
Excerpt: as §1, §2

σ2 receptor = details: cited from earlier work
σ1 receptors = target: T2, σ1 receptors (Rattus norvegicus, UniProt Q9R0C9); test: ED50 for pre-blocking of ^18F-FTC146 uptake in rat whole brain (PET); type: in vivo
T2 construct: from tissue; host or cells: brain of living male rats (PET imaging)
T2 sequence (Q9R0C9 whole entry): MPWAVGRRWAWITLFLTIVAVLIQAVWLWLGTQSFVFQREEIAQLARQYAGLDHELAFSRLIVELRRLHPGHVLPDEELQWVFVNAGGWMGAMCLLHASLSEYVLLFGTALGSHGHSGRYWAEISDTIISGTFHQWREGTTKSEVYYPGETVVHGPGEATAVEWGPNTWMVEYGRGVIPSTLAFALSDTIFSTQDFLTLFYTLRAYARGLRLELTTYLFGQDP
Description: (§3) For radioligand injection, a polyethylene catheter (PE 10) was inserted into the penile vein of a male rat and then secured with tissue adhesive and tape. For dynamic scanning, the rats were secured with tape in the scanner and kept under 1.5% isoflurane anesthesia via a nose cone. Body temperature was monitored with a rectal probe. All PET scans were performed on a microPET Focus 220 scanner (Siemens Medical Solutions) (7,8). Data were acquired in listmode and reconstructed with Fourier rebinning + 2D filtered backprojection. A transmission scan was acquired before radioligand injection for attenuation correction. Dynamic scanning began at the time of a one-minute intravenous bolus injection of the radioligand under study (55 ± 19 MBq; volume 0.2 to 1.0 mL). The injected mass dose was 3 ± 1 nmol/kg. Challenge agents were administered intravenously 10 minutes before the radioligand for pre-blocking studies or 10 minutes after the radioligand for displacement studies. Tomographic images were analyzed with pixel-wise modeling computer software (PMOD 2.6; PMOD Group). Regions-of-interest in the brain were delineated, and time-activity curves calculated as SUV versus time.
Pre-blocking and displacement experiments were performed to assess radioligand target engagement and radioligand selectivity in vivo. Normally 4 doses of 0.01 mg/kg, 0.05 mg/kg, 0.25 mg/kg, and 1.25 mg/kg were used for preblocking experiments, and only 2 doses of 0.25 mg/kg and 1.25 mg/kg were used for displacement experiments. […] […] […] […] Where data permitted, the dose-response curves were fitted with GraphPad Prism software (version 8.1.1; GraphPad) to estimate the ED50 values. A dummy value of 100 pmol per kg body weight was used for zero concentration of the challenge agent in the construction of these dose-response curves. Numerical data are expressed as mean ± S.D. for n>2, or as mean and range for n = 2.

σ1 receptor = details: cited from earlier work
GluN2B receptors [1] = target: T3, GluN2B receptors (Rattus norvegicus, UniProt P35439+Q00960); test: ED50 for pre-blocking of GluN2B radioligand uptake in rat whole brain (PET); type: in vivo
T3 construct: from tissue; host or cells: brain of living male rats (PET imaging)
T3 sequence (Q00960 27-1482, other chains not shown): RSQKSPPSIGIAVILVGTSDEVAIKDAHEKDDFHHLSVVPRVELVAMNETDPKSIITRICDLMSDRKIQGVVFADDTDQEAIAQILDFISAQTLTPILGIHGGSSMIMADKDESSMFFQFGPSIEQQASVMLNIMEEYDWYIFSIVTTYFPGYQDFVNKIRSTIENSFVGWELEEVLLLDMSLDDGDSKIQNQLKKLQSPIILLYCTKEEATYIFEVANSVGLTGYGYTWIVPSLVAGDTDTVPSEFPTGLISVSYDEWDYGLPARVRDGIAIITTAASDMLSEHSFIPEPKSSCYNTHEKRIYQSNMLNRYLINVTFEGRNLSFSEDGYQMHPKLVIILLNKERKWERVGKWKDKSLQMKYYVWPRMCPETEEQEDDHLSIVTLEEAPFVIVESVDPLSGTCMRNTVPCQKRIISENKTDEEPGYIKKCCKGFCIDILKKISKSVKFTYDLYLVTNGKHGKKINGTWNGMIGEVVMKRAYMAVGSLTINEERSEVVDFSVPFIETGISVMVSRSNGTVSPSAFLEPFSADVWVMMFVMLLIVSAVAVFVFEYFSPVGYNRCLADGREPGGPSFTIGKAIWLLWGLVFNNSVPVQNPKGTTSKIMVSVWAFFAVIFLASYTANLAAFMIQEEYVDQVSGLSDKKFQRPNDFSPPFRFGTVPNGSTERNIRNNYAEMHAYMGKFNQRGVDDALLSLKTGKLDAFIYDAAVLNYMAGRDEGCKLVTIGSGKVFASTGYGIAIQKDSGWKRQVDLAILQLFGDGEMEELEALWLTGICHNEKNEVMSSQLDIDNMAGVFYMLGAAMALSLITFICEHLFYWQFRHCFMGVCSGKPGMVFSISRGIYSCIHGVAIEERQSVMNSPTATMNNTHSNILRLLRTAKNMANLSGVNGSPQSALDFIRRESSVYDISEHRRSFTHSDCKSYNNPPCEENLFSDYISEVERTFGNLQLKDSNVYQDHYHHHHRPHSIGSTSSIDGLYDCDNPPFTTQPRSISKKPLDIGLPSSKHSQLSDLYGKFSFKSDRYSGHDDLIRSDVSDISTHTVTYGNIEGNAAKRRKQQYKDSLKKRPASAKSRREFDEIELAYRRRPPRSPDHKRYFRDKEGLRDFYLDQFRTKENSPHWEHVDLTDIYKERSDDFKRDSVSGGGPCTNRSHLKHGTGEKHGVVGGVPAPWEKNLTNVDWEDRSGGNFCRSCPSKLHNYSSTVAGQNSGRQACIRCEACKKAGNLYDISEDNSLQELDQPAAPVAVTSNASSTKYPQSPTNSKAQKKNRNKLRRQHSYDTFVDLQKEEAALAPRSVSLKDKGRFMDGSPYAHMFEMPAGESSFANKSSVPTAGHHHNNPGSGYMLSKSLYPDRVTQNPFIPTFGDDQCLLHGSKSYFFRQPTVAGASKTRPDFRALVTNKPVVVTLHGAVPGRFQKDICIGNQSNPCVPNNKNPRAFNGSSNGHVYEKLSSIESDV
Description: as §3, with “For dynamic scanning, the rats were secured with tape in the scanner and kept under 1.5% isoflurane anesthesia via a nose cone.” left out
Pre-blocking and displacement experiments were performed to assess radioligand target engagement and radioligand selectivity in vivo. […] Areas-under the curve (AUCs) from time-activity curves between 20 and 90 minutes were calculated for each radioligand. AUCs obtained from the same production of radioligand were scaled to the value (or mean value) for the baseline experiment to give relative values (relative AUC20–90 min). […] Where data permitted, the dose-response curves were fitted with GraphPad Prism software (version 8.1.1; GraphPad) to estimate the ED50 values. A dummy value of 100 pmol per kg body weight was used for zero concentration of the challenge agent in the construction of these dose-response curves. Numerical data are expressed as mean ± S.D. for n>2, or as mean and range for n = 2.

GluN2B = target: T4, GluN2B (Homo sapiens, UniProt Q05586+Q13224); details: cited from earlier work
T4 construct: expressed in transfected cells; host or cells: transiently transfected mouse fibroblast cells (membrane homogenate)
T4 sequence (Q13224 27-1484, species assumed, other chains not shown): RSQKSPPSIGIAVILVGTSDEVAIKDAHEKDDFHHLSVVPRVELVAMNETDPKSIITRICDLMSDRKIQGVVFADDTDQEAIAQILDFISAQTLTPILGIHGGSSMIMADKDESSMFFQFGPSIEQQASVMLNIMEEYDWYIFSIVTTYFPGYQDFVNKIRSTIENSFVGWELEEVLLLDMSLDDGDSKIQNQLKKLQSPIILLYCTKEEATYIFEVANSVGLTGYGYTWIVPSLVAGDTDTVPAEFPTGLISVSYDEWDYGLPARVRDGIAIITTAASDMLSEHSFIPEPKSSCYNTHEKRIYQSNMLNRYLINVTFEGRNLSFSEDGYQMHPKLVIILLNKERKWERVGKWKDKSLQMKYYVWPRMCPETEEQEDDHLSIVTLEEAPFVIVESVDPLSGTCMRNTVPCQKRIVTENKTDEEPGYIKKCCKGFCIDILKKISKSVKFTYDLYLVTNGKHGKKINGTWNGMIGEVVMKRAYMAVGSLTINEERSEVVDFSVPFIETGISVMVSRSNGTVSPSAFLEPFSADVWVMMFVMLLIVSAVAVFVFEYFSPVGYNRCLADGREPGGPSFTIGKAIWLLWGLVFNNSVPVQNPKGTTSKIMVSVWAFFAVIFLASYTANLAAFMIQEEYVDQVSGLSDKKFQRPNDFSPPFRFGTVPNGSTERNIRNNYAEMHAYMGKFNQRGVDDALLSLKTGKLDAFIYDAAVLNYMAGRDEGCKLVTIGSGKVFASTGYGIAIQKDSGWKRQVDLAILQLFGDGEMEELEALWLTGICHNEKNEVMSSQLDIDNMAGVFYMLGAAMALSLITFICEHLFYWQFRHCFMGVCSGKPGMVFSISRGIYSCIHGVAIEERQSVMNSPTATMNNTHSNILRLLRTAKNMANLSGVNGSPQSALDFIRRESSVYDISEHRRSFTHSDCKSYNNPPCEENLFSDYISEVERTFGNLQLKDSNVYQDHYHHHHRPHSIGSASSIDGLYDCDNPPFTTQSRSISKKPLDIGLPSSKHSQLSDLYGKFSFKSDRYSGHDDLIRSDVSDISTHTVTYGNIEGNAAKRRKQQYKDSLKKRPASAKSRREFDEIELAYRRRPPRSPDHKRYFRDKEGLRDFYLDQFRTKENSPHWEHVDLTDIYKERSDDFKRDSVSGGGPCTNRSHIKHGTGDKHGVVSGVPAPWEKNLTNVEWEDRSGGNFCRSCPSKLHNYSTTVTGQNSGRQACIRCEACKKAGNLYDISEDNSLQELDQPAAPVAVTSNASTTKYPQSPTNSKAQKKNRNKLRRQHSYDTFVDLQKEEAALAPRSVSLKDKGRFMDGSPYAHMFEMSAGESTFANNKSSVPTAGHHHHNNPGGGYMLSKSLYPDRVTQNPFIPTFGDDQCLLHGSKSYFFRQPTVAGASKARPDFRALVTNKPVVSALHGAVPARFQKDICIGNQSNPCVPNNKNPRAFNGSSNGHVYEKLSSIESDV

GluN2B receptors [2] = target: T3, GluN2B receptors; set-up: method as in PMID 31924728; details: pre-blocking, radioligand ^11C-(S)-NR2B-SMe; cited from earlier work
[3] = pKa measurement (cyclohexane / sodium phosphate buffers); type: physicochemical; details: cyclohexane/sodium phosphate buffer; distribution between cyclohexane and sodium phosphate buffers; read-out: pKa (apparent)
calcium channel = test: PDSP pharmacological screen, calcium channel; type: binding; details: 10 μM
Excerpt: as §1
(§4) Assessment of Binding Affinity against a Wide Range of Other Receptors and Binding Sites. […]

[4] = tested on: numerous binding sites and receptors; test: PDSP pharmacological screen, other receptors and binding sites; details: 10 μM; not greater than 10% for sites other than calcium channel, hERG, σ1, σ2
Excerpt: as §1, §4

[5] = LogD7.4 measurement (1-octanol / sodium phosphate buffer); type: physicochemical; details: 1-octanol/sodium phosphate buffer, pH 7.4; Table 1; text gives this value as measured logD7.4; read-out: cLogD7.4
Description: The radiochemical purity of the radioligand was measured via HPLC. […] Aliquots (1 mL) were distributed to each of eight borosilicate disposable culture tubes (13 × 100 mm). Six tubes were extracted with buffer pre-treated 1-octanol (1 mL) by vortexing for one minute and then centrifuged for one minute. The organic and aqueous phases were separated. Samples of organic phase (50 µL) and aqueous phase (50 µL) were taken and separately measured for radioactivity. The remaining two tubes containing radioactivity in buffer were analyzed with HPLC to check for any decrease in radiochemical purity over the time-span of the experiment. […] LogD was calculated as log[(cpm/mL for 1-octanol phase)/(cpm/mL for aqueous phase)] using Pallas for Windows software (CompuDrug Inc.).

hERG channel = hERG channel (Homo sapiens, UniProt Q12809); test: PDSP pharmacological screen, hERG channel; details: read-out: inhibition of reference radioligand binding, hERG channel
Sequence of hERG channel (Q12809 whole entry): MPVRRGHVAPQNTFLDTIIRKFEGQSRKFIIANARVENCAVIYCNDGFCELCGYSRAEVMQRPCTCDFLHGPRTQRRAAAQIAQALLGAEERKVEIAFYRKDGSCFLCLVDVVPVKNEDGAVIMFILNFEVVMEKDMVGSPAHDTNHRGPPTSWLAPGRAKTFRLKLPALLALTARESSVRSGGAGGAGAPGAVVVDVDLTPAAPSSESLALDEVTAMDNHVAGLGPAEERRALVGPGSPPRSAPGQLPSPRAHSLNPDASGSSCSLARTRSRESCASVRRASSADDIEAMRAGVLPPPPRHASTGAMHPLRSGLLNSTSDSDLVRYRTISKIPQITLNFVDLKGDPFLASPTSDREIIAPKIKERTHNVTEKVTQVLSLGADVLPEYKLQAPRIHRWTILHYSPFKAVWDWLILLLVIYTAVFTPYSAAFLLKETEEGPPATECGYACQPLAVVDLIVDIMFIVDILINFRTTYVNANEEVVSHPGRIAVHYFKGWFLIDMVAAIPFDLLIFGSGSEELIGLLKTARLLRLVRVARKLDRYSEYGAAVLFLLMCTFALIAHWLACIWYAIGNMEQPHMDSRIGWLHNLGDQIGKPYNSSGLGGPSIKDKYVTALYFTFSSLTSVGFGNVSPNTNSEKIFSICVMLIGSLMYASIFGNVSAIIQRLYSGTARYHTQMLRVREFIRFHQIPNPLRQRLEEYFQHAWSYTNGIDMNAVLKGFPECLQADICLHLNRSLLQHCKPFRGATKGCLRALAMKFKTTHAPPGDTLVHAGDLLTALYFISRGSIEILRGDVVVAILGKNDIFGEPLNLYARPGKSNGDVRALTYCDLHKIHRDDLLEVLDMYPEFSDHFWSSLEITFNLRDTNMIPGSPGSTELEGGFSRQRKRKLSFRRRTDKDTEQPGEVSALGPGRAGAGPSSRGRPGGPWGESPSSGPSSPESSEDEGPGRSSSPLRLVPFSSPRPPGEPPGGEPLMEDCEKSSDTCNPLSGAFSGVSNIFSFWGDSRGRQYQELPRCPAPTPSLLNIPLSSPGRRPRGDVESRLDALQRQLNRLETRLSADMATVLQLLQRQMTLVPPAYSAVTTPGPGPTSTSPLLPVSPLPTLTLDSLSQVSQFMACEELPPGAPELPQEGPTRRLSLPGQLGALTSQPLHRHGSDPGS
Excerpt: as §1, §4

Sequence of guinea pig σ1 receptor (Q60492 whole entry): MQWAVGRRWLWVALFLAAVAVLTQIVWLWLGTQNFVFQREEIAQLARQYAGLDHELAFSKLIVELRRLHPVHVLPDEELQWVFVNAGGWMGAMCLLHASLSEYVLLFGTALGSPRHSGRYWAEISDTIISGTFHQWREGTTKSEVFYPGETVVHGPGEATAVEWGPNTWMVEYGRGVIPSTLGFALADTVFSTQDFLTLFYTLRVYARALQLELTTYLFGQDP

COc1ccc2c(c1)CCN(CCCCc1ccc(C)cc1)CC2O (single isomer, unassigned; (+)) [(+)-NR2B-Me]
Ki (guinea pig σ1 receptor): 91 nM | Ki (PC12 cell σ2 receptors): 100 nM

COc1ccc2c(c1)CCN(CCCCc1ccc(C)cc1)CC2O (single isomer, unassigned; (-)) [(−)-NR2B-Me]
Ki (guinea pig σ1 receptor): 42 nM | Ki (PC12 cell σ2 receptors): 110 nM

COc1ccc2c(c1)CCN(CCCCc1ccc(SC)cc1)C[C@H]2O [(S)-NR2B-SMe]
Ki (σ2 receptor; read-out: σ2 Ki): 140 nM | ED50 versus ^18F-FTC146 (σ1 receptors; rat whole brain): exceeded 1 µmol per kg body weight | Ki (σ1 receptor; read-out: σ1 Ki): 24 nM

CN(C)CCN(C)CCc1ccc(Cl)c(Cl)c1 [BD1047]
effect of pre-administration on whole rat brain radioactivity uptake of GluN2B radioligands (GluN2B receptors [1]; ^11C-NR2B-Me enantiomers (also ^11C-(S)-NR2B-SMe)): minimal effects | ED50 in rat whole brain in vivo ^11C-(+)-NR2B-Me (GluN2B receptors [1]; pre-blocking, radioligand ^11C-(+)-NR2B-Me, AUC 20-90 min): 555 nmol/kg | ED50 in rat whole brain in vivo ^11C-(−)-NR2B-Me (GluN2B receptors [1]; pre-blocking, radioligand ^11C-(−)-NR2B-Me, AUC 20-90 min): 900 nmol/kg | ED50 in rat whole brain in vivo ^11C-(−)-NR2B-SMe (GluN2B receptors [1]; pre-blocking, radioligand as printed in Table 3 head): > 1000 nmol/kg | Ki (σ2 receptor; reference radioligand ^3H-DTG, ref 39, read-out: Ki for σ2): 47 nM | ED50 in rat whole brain in vivo ^18F-FTC146 (σ1 receptors; radioligand ^18F-FTC146, AUC 20-120 min): 169 nmol/kg | Ki (σ1 receptor; reference radioligand ^3H-pentazocine, ref 39, read-out: Ki for σ1): 0.9 nM

Cc1ccc(CC2(O)CCN(CCOc3ccc(O)cc3)CC2)cc1 [CO101,244]
Ki (GluN2B): 43 nM | ED50 (GluN2B receptors [1]; rat, read-out: ED50 in rat whole brain in vivo ^11C-(+)-NR2B-Me): 0.041 µmol/kg | ED50 in rat whole brain in vivo ^11C-(S)-NR2B-SMe (GluN2B receptors [2]): 74 nmol/kg

COc1ccc2c(c1)CCN(CCCCc1ccc(C)cc1)CC2O (centres unmarked) [NR2B-Me, 7-methoxy-3-(4-(p-tolyl)butyl)-2,3,4,5-tetrahydro-1H-benzo[d]azepin-1-ol]
pKa [3]: 5.04 | inhibition of reference radioligand binding, calcium channel (calcium channel): 39.6% | inhibition of reference radioligand binding, numerous other binding sites and receptors [4]: only weakly inhibited | logD [5]: 3.27 | inhibition at 10 µM (guinea pig σ1 receptor; 10 μM, read-out: inhibition of reference radioligand binding, guinea pig σ1 receptor): 89.7% | inhibition at 10 µM (hERG channel): 61.7% | inhibition at 10 µM (PC12 cell σ2 receptors; at 10 µM (Table 1 footnote: 10 µmol), PC12 cell σ2): 90.7% | σ2 inhibition (PC12 cell σ2 receptors; at 10 µM (Table 1 footnote: 10 µmol), PC12 cell σ2, 10 µM): 91%

C[C@@H](CN1CCC(Cc2ccccc2)CC1)[C@@H](O)c1ccc(O)cc1 [Ro-25-6981]
Ki (GluN2B): 9 nM
